This is an account of results in publication PMC3792046 (PLoS ONE, 2013).

In one experiment the test system is gp120. Conditions: ref [71], [72]; cited from earlier work.
The target of a further experiment is SB105-A10-PEG-biotin. In words: SPR; BIAcore X100; biotinylated SB105-A10 immobilised on SA streptavidin sensorchip (560 RU, 0,12 pmol/mm^2); gp41 (0.61-10 nM) or gp120 (12.5-100 nM) injected in HBS-EP (10 mM HEPES pH 7.4, 150 mM NaCl, 3 mM EDTA, 0.005% surfactant P20), 3 min association, 10 min wash; streptavidin-alone surface for blank subtraction; steady-state affinity from RU at equilibrium. (In general: Surface plasmon resonance follows binding to a sensor surface in real time, without labels.)

As to cellulose sulfate, the “recognition of positively charged regions on gp120” value with gp120 is recorded as “recognize positively charged regions on gp120”. In general, Kd refers to the free concentration of one partner at which half of the binding sites on the other are occupied at equilibrium, for simple one-to-one binding. A lower Kd goes with tighter binding. The substance “HIV-1 glycosilated recombinant gp41 ectodomain (amino acids 546-682) (from UniProt P04578 546-682) (domain or fragment)” gave an equilibrium dissociation constant (Kd) with SB105-A10-PEG-biotin of 3.9 nM.
